# Data taken from US7449466B2, “Cyclic aminophenyl sulfamate derivative” (Aska Pharmaceutical Co., Ltd., priority 2003, dated 2008).
# How the values were obtained:
# [1] = tested on: Chinese hamster lung fibroblast cells (CHL/IU cells); experiment: Chromosome aberration test using mammals' cultured cells; format: cell-based; settings: short time and continuous treatment, negative = 5% or less
# Procedure: (7) Chromosome Aberration Test Using Mammals' Cultured Cells, for Examining Genetic Toxicity: Presence of clastogenic activity of the test compounds on cultured cells was examined by a chromosome aberration test using mammals' cultured cells (Mutat. Res., 48, 337-354). The test was conducted by short time treatment method and continuous treatment method, using Chinese hamster lung fibroblast cells (CHL/IU cells). […] After the end of the culture, the medium was removed and 5 mL of a fresh medium containing solvent or a test compound at the concentration levels designed as above was added to the dishes where the continuous treatment was intended. In the short time treatment in which no S9mix was added, 3 ML of the fresh medium similar to the above was added, and where S9mix was added, 3 mL of a fresh medium formed by adding 0.5 mL of S9mix to 2.5 mL of the fresh medium similar to the above was added to the respective dishes. […] In the continuous treatment, the culture time was increased to 24 hours. In both the short time treatment and continuous treatment, 50 μL of 10 μg/mL colcemide solution was added at two hours preceding the end of the culture. After the end of the culture, the cells were detached by 0.25% trypsine solution and transferred into a centifugation tube. […]
# steroid sulfatase = biological target: T1, steroid sulfatase (Rattus norvegicus, UniProt P15589); experiment: Steroid sulfatase inhibitory activity (in vivo), liver and uterus of ovariectomized rats after oral dosing; settings: 0.5 mg/kg p.o. once a day for seven days, ovariectomized female SD rats
# T1 construct: The livers and uteri were separately minced with scissors and suspended in cooled PBS containing 250 mM sucrose; from tissue; host or cells: liver and uterus of ovariectomized female SD rats (2,000 x g supernatant of homogenate)
# T1 sequence (P15589 20-577): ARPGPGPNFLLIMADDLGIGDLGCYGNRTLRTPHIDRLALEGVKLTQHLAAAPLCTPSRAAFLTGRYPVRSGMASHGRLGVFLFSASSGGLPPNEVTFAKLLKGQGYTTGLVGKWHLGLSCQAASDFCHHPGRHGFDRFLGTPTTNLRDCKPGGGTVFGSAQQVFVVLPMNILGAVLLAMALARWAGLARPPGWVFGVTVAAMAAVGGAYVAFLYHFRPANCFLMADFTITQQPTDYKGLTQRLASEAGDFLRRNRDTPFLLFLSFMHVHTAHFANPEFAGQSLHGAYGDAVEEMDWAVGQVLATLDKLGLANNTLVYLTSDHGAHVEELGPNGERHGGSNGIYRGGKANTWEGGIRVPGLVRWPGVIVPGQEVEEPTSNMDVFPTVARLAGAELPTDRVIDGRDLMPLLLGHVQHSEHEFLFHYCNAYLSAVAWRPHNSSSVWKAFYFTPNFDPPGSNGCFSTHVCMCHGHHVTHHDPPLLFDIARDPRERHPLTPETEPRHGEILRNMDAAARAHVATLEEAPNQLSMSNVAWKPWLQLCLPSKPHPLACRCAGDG
# Procedure: (2) Measurement of Steroid Sulfatase Inhibitory Activity (in vivo):
# To six/group of female SD rats which had undergone ovariectomy, the test compounds as each suspended in 0.5% polyoxyethylene (20) sorbitan monooleate (Tween 80) were orally administered once a day for seven days. On the next day of the last administration, the rats were sacrificed under ether anesthesia. The bodies were anatomized and their livers and uteri were extracted, which were washed with cooled PBS and stored below −70° C. The livers and uteri were separately minced with scissors and suspended in cooled PBS containing 250 mM sucrose. Each of the suspensions was homogenized with a homogenizer under cooling with ice, from which neclei and cell debris were eliminated by centrifugation at 2,000×g for 20 minutes (4° C.). Protein concentration of each of the supernatant was measured by Bradford's method (Anal. Biochem., 72, 248-254 (1976)).
# To 2-200 μg of the supernatant protein mass and 50 μL of 60 μM estrone-3-sulfate containing about 100 nCi of [6,7-^3H]estrone-3-sulfate (purchased from Perkin Elmer Life Sciences, Boston, Mass., U.S.A.; specific activity, 40-60 Ci/mmol), PBS was added to make the total amount 150 μL, followed by incubation at 37° C. for 30 minutes. After the incubation, the amount of hydrolyzed [6,7-^3H]estrone-3-sulfate was calculated by a method similar to the in vitro measurement in (1) above. Also steroid sulfatase activity per mg of the protein was calculated, and from the amount of the hydrolyzed [6,7-^3H]estrone-3-sulfate and the calculated steroid sulfatase activity per mg of the protein, the tested compound's steroid sulfatase inhibitory rate was determined.
smiles,measurement,setting,value
"NS(=O)(=O)Oc1ccc(N2CCN(CCCC3CCCCC3)CC2)cc1F [Example 24, 4-[4-(3-cyclohexylpropyl)piperazin-1-yl]-2-fluorophenyl-O-sulfamate]",Chromosome aberration test: Numerical abnormality,[1],negative
same,Chromosome aberration test: Structural abnormality,[1],negative
same,"Inhibitiory rate (0.5 mg/kg, p.o., %) Liver",steroid sulfatase; liver,98.30%
same,"Inhibitiory rate (0.5 mg/kg, p.o., %) Uterus",steroid sulfatase; uterus,97.87%
